Data published in US20230373985A1 (Origenis Gmbh, priority 2020, published 2023).
pIC50: −log10 of the molar value.

Key:
[1] = target: T1, wt human JAK1, catalytic site (Homo sapiens, UniProt P23458); experiment: HTRF KinEASE assay, JAK1; format: biochemical; conditions: 2.5 μM ATP; read-out: IC50, Activity Toward JAK1
T1 construct: wt human JAK1, catalytic site; purchased ThermoFisher
Experimental: (§1) Basic protocol for HTRF KinEASE assay (Cisbio/FRA) inhibitor studies involved two steps: • Enzymatic step: Addition of 4 μL of test compound in corresponding DMSO dilutions, 4 μL of kinase/substrate mixture, 2 μL of ATP into 384 well small volume plates. Incubation for at least 30 minutes at room temperature. • Detection step: Addition of 5 μL antibody and 5 μL streptavidin-XL665, read plate after 60 minutes. Data analysis of emission ratios according KinEASE assay protocol.
(§2) Kinase and assay components were adjusted to final concentrations according to kit protocol. For TYK2: 2 nM wt human TYK2, catalytic site (SignalChem/CAN), 1 μM HTRF KinEASE-TK Substrate-biotin, 1 μM ATP in 1× Kinase Buffer. […] For JAK2: 1 nM wt human JAK2, catalytic site (SignalChem/CAN), 1 μM HTRF KinEASE-TK Substrate-biotin, 100 μM ATP in 1× Kinase Buffer.
as §2

[2] = target: T2, wt human TYK2, catalytic site (Homo sapiens, UniProt P29597); experiment: HTRF KinEASE assay, TYK2; format: biochemical; conditions: 1 μM ATP; read-out: IC50, Activity Toward TYK2
T2 construct: wt human TYK2, catalytic site; purchased SignalChem
T2 sequence (P29597 897-1176 limits assumed): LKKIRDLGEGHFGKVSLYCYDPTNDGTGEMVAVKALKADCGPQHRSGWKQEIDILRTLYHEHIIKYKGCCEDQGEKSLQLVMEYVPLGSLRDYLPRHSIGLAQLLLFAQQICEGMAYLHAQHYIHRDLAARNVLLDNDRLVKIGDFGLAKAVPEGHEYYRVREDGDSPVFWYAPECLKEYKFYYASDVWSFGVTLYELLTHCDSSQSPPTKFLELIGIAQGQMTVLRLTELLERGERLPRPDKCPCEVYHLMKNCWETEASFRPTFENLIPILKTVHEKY
Experimental: as §1
(§3) Kinase and assay components were adjusted to final concentrations according to kit protocol. For TYK2: 2 nM wt human TYK2, catalytic site (SignalChem/CAN), 1 μM HTRF KinEASE-TK Substrate-biotin, 1 μM ATP in 1× Kinase Buffer. For JAK1: 4 nM wt human JAK1, catalytic site (ThermoFisher/USA), 1 μM HTRF KinEASE-TK Substrate-biotin, 2.5 μM ATP in 1× Kinase Buffer. For JAK2: 1 nM wt human JAK2, catalytic site (SignalChem/CAN), 1 μM HTRF KinEASE-TK Substrate-biotin, 100 μM ATP in 1× Kinase Buffer.
as §3

T1 sequence (P23458 875-1153 limits assumed): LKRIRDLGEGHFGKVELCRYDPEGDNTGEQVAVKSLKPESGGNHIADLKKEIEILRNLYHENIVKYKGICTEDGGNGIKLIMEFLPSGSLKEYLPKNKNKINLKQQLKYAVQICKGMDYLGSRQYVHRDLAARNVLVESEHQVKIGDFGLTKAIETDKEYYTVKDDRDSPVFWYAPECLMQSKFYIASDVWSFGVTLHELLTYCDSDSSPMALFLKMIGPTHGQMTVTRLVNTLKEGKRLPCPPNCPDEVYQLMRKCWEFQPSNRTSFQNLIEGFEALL

Structure (SMILES) | pIC50 [1] | pIC50 [2]
NC(=O)c1nn(-c2c(Cl)cccc2Cl)nc1Nc1ccc(C(=O)N2CCC(F)C2)cn1 (stereo in doubt) [compound 130, (S)-2-(2,6-dichlorophenyl)-5-((5-(3-fluoropyrrolidine-1-carbonyl)pyridin-2-yl)amino)-2H-1,2,3-triazole-4-carboxamide] | 6.00 to 7.00 | 7.00 to 8.00
N#Cc1cc(Cl)c(-n2nc(Nc3ccc(C(=O)N4CCC(F)C4)cc3)c(C(N)=O)n2)c(Cl)c1 (stereo in doubt) [compound 148, (R)-2-(2,6-dichloro-4-cyanophenyl)-5-((4-(3-fluoropyrrolidine-1-carbonyl)phenyl)amino)-2H-1,2,3-triazole-4-carboxamide] | 6.00 to 7.00 | 7.00 to 8.00
CS(=O)(=O)n1cc(Nc2nn(-c3c(Cl)cccc3Cl)nc2C(N)=O)cn1 [Compound No. 172, 2-(2,6-dichlorophenyl)-5-((1-(methylsulfonyl)-1H-pyrazol-4-yl)amino)-2H-1,2,3-triazole-4-carboxamide] | 6.00 to 7.00 | 
CC(C)(C)NC(=O)c1ccc(Nc2cn(-c3c(Cl)cccc3Cl)nc2C(N)=O)cc1F [compound 28, 4-((4-(tert-butylcarbamoyl)-3-fluorophenyl)amino)-1-(2,6-dichlorophenyl)-1H-pyrazole-3-carboxamide] | 6.00 to 7.00 | 7.00 to 8.00
CC(C)(C)NC(=O)c1ccc(Nc2cn(-c3c(F)cccc3Cl)nc2C(N)=O)cc1F [compound 29] | 6.00 to 7.00 | 7.00 to 8.00
CC(C)(C)OC(=O)N1CCCC(NC(=O)c2ccc(Nc3cn(-c4c(Cl)cccc4Cl)nc3C(N)=O)cc2)C1 (stereo not drawn) [compound 33, tert-butyl_3-(4-((3-carbamoyl-1-(2,6-dichlorophenyl)-1H-pyrazol-4-yl)amino)benzamido)piperidine-1-carboxylate] | 6.00 to 7.00 | 6.00 to 7.00
NC(=O)c1nn(-c2c(Cl)cccc2Cl)cc1Nc1ccc(C(=O)NC2CCCNC2)cc1 (stereo not drawn) [compound 39, 1-(2,6-dichlorophenyl)-4-((4-(piperidin-3-ylcarbamoyl)phenyl)amino)-1H-pyrazole-3-carboxamide] | 7.00 to 8.00 | 6.00 to 7.00
CC(C)(C)C(=O)c1ccc(Nc2cn(-c3c(Cl)cccc3Cl)nc2C(N)=O)cc1 [compound 41, 1-(2,6-dichlorophenyl)-4-((4-pivaloylphenyl)amino)-1H-pyrazole-3-carboxamide] | 6.00 to 7.00 | 6.00 to 7.00
Cc1nc2cc(Nc3cn(-c4c(Cl)cccc4Cl)nc3C(N)=O)ccc2n1C [compound 43, 1-(2,6-dichlorophenyl)-4-((1,2-dimethyl-1H-benzo[d]imidazol-5-yl)amino)-1H-pyrazole-3-carboxamide] | 6.00 to 7.00 | 6.00 to 7.00
NC(=O)c1nn(-c2c(Cl)cccc2Cl)cc1Nc1ccc(-c2nnc3n2CCCC3)cc1 [compound 55, 1-(2,6-dichlorophenyl)-4-((4-(5,6,7,8-tetrahydro-[1,2,4]triazolo[4,3-a]pyridin-3-yl)phenyl)amino)-1H-pyrazole-3-carboxamide] | 6.00 to 7.00 | 7.00 to 8.00
NC(=O)c1nn(-c2c(Cl)cccc2Cl)cc1Nc1ccc(-c2nnccc2Cl)cc1 [compound 67, 4-((4-(4-chloropyridazin-3-yl)phenyl)amino)-1-(2,6-dichlorophenyl)-1H-pyrazole-3-carboxamide] | 6.00 to 7.00 | 6.00 to 7.00
NC(=O)c1nn(-c2c(Cl)cccc2Cl)cc1Nc1ccc(-c2nnccc2C(F)(F)F)cc1 [compound 69, 1-(2,6-dichlorophenyl)-4-((4-(4-(trifluoromethyl)pyridazin-3-yl)phenyl)amino)-1H-pyrazole-3-carboxamide] | 6.00 to 7.00 | 7.00 to 8.00
Cc1ccc(=O)n(-c2ccc(Nc3cn(-c4c(Cl)cccc4Cl)nc3C(N)=O)cc2)n1 [compound 72, 1-(2,6-dichlorophenyl)-4-((4-(3-methyl-6-oxopyridazin-1(6H)-yl)phenyl)amino)-1H-pyrazole-3-carboxamide] | 6.00 to 7.00 | 7.00 to 8.00
NC(=O)c1nn(-c2c(Cl)cccc2Cl)cc1Nc1ccc(-n2nnc3c2CCCC3)cc1 [compound 73, 1-(2,6-dichlorophenyl)-4-((4-(4,5,6,7-tetrahydro-1H-benzo[d][1,2,3]triazol-1-yl)phenyl)amino)-1H-pyrazole-3-carboxamide] | 6.00 to 7.00 | 7.00 to 8.00
NC(=O)c1nn(-c2c(Cl)cccc2Cl)cc1Nc1ccc(C(=O)N2CCOCC2)cn1 [compound 74, 1-(2,6-dichlorophenyl)-4-((5-(morpholine-4-carbonyl)pyridin-2-yl)amino)-1H-pyrazole-3-carboxamide] | 7.00 to 8.00 | 7.00 to 8.00
NC(=O)c1nn(-c2c(Cl)cccc2Cl)cc1Nc1ccc(-n2ccc(Cl)n2)cc1 [compound 76, 4-((4-(3-chloro-1H-pyrazol-1-yl)phenyl)amino)-1-(2,6-dichlorophenyl)-1H-pyrazole-3-carboxamide] | 6.00 to 7.00 | 
CCc1nc(C(F)(F)F)nn1-c1ccc(Nc2nn(-c3c(Cl)cccc3Cl)nc2C(N)=O)cc1 [compound 121] | 6.00 to 7.00 | 
NC(=O)c1nn(-c2c(Cl)cccc2Cl)nc1Nc1ccc(-n2nncc2C(F)(F)F)cc1 [compound 155, 2-(2,6-dichlorophenyl)-5-((4-(5-(trifluoromethyl)-1H-1,2,3-triazol-1-yl)phenyl)amino)-2H-1,2,3-triazole-4-carboxamide] | 7.00 to 8.00 | 
Cc1cn(-c2ccc(Nc3cn(-c4c(Cl)cccc4Cl)nc3C(N)=O)cc2)nc1C [compound 217, 1-(2,6-dichlorophenyl)-4-((4-(3,4-dimethyl-1H-pyrazol-1-yl)phenyl)amino)-1H-pyrazole-3-carboxamide] | 6.00 to 7.00 | 
CCc1c(C)nn(-c2ccc(Nc3cn(-c4c(Cl)cccc4Cl)nc3C(N)=O)cc2)c1C [compound 222, 1-(2,6-dichlorophenyl)-4-((4-(4-ethyl-3,5-dimethyl-1H-pyrazol-1-yl)phenyl)amino)-1H-pyrazole-3-carboxamide] | 6.00 to 7.00 | 
CCc1cccnc1-c1ccc(Nc2cn(-c3c(Cl)cccc3Cl)nc2C(N)=O)cc1 [compound 234, 1-(2,6-dichlorophenyl)-4-((4-(3-ethylpyridin-2-yl)phenyl)amino)-1H-pyrazole-3-carboxamide] | 6.00 to 7.00 | 
NC(=O)c1nn(-c2c(Cl)cccc2Cl)cc1Nc1ccc(C(=O)N2CC(F)(F)C(F)(F)C2)cn1 [compound 369, 1-(2,6-dichlorophenyl)-4-((5-(3,3,4,4-tetrafluoropyrrolidine-1-carbonyl)pyridin-2-yl)amino)-1H-pyrazole-3-carboxamide] |  | 6.00 to 7.00
CCOc1cccc(Cl)c1-n1cc(Nc2cnn(C)c2)c(C(N)=O)n1 [compound 372, 1-(2-chloro-6-ethoxyphenyl)-4-((1-methyl-1H-pyrazol-4-yl)amino)-1H-pyrazole-3-carboxamide] |  | 6.00 to 7.00
Cc1cccc2[nH]nc(-c3ccc(Nc4cn(-c5c(Cl)cccc5Cl)nc4C(N)=O)cn3)c12 [compound 427, 1-(2,6-dichlorophenyl)-4-((6-(4-methyl-3H-indazol-3-ylidene)-1,6-dihydropyridin-3-yl)amino)-1H-pyrazole-3-carboxamide] |  | 6.00 to 7.00
Cn1nnc(-c2ccc(Nc3cn(-c4c(Cl)cccc4Cl)nc3C(N)=O)nc2)n1 [compound 434, 1-(2,6-dichlorophenyl)-4-((5-(2-methyl-2H-tetrazol-5-yl)pyridin-2-yl)amino)-1H-pyrazole-3-carboxamide] |  | 6.00 to 7.00
NC(=O)c1nn(-c2c(Cl)cccc2Cl)cc1Nc1ccc(-n2nncc2C(F)(F)F)cn1 [compound 437, 1-(2,6-dichlorophenyl)-4-((5-(5-(trifluoromethyl)-1H-1,2,3-triazol-1-yl)pyridin-2-yl)amino)-1H-pyrazole-3-carboxamide] | 6.00 to 7.00 | 
CC1(C)CN(C(=O)c2ccc(Nc3cn(-c4c(Cl)cccc4Cl)nc3C(N)=O)nc2)C1 [compound 465, 1-(2,6-dichlorophenyl)-4-((5-(3,3-dimethylazetidine-1-carbonyl)pyridin-2-yl)amino)-1H-pyrazole-3-carboxamide] |  | 6.00 to 7.00
Cc1cccc2nnc(-c3ccc(Nc4cn(-c5c(Cl)cc(F)cc5Cl)nc4C(N)=O)cn3)n12 [compound 477, 1-(2,6-dichloro-4-fluorophenyl)-4-((6-(5-methyl-[1,2,4]triazolo[4,3-a]pyridin-3-yl)pyridin-3-yl)amino)-1H-pyrazole-3-carboxamide] |  | 7.00 to 8.00
